Measured values as given in US10870647B2, “Imidazopyridine derivative, method for preparing same, and pharmaceutical composition containing same as active ingredient for preventing or treating cancer” (DAEGU-GYEONGBUK MEDICAL INNOVATION FOUNDATION, priority 2016, dated 2020).

Columns and labels:
Experiment in all cases: Kinase selectivity, scanMAX Kinase assay panel (DiscoverX), % control at 1 uM
Assay type in all cases: binding
[1] = target: T1, scanMAX Kinase assay panel (Homo sapiens, UniProt P29322); details: EPHA8; 1 uM; read-out: Percent Control (%)
T1 construct: purchased DiscoverX
T1 sequence (P29322 28-1005): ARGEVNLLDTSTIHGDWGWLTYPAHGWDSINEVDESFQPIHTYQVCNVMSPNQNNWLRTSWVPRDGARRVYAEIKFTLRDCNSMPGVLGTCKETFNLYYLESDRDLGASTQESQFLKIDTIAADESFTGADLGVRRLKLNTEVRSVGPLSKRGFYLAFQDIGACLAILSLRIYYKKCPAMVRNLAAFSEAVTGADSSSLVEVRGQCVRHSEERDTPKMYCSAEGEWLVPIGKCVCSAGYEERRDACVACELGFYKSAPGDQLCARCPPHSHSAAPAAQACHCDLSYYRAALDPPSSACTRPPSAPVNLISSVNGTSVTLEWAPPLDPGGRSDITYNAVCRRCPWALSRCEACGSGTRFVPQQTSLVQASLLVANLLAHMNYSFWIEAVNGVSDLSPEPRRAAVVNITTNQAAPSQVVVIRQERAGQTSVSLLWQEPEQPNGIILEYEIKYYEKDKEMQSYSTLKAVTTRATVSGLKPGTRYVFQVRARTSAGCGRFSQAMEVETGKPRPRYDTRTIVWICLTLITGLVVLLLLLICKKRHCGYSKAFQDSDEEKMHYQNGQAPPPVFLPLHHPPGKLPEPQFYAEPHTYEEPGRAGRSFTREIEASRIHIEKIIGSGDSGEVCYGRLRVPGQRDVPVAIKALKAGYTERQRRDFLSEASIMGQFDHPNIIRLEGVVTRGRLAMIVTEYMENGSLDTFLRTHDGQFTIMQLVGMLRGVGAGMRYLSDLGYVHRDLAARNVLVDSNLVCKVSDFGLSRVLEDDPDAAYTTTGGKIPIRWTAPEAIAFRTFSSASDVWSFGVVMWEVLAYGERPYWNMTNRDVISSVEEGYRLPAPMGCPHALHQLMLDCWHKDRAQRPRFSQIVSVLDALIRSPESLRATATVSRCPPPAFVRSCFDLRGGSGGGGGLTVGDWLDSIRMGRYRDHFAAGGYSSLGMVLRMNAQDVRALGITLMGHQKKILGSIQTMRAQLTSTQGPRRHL
Procedure, shortened: (§1)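 Single-point screen at 1 uM compound in DMSO. Lower % control means stronger inhibition, with the cutoff for activity set at <35%.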

[2] = target: T2, scanMAX Kinase assay panel (Homo sapiens, UniProt P54756); details: EPHA5; 1 uM; read-out: Percent Control (%)
T2 construct: purchased DiscoverX
T2 sequence (P54756 25-1037): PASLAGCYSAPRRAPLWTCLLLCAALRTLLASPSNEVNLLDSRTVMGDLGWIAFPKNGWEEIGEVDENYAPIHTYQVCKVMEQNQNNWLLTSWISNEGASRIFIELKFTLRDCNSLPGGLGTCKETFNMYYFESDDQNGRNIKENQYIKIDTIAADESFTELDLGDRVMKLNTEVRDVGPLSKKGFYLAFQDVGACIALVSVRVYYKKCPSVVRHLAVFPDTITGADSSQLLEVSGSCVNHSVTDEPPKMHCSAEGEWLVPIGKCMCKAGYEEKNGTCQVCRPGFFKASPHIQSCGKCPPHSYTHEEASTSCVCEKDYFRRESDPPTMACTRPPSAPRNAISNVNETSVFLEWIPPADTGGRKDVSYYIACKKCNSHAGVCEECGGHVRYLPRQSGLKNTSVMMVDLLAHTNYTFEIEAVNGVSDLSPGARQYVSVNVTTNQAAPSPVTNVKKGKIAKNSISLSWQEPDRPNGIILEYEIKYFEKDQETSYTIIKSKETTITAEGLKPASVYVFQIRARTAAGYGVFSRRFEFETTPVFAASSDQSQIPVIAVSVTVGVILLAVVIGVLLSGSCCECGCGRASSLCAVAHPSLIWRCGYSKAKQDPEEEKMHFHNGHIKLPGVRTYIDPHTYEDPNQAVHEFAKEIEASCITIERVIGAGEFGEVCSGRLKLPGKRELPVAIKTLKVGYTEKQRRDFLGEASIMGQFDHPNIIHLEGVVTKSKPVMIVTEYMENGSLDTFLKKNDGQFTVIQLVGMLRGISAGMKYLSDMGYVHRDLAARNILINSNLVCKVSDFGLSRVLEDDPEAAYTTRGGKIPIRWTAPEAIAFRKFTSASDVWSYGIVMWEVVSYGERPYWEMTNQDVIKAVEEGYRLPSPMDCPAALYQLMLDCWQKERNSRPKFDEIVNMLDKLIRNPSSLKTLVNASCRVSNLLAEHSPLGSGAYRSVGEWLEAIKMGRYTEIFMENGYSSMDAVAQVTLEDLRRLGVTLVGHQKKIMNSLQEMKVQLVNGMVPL
Procedure, shortened: as §1

[3] = target: T3, scanMAX Kinase assay panel (Homo sapiens, UniProt Q9P289); details: MST4; 1 uM; read-out: Percent Control (%)
T3 construct: purchased DiscoverX
T3 sequence (Q9P289 whole entry): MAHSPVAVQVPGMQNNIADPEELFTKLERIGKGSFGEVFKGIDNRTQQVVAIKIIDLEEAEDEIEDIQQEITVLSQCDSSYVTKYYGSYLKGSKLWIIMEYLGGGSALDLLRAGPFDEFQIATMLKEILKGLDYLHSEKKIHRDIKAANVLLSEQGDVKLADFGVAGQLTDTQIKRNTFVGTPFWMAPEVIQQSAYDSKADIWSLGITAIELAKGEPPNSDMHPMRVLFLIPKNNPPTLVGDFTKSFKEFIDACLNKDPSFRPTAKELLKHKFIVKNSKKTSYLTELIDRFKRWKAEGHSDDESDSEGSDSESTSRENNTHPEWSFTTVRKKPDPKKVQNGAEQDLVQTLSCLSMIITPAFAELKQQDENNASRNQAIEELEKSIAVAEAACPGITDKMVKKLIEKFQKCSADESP
Procedure, shortened: as §1

[4] = target: T4, scanMAX Kinase assay panel (Homo sapiens, UniProt Q9H0K1); details: SIK2; 1 uM; read-out: Percent Control (%)
T4 construct: purchased DiscoverX
T4 sequence (Q9H0K1 whole entry): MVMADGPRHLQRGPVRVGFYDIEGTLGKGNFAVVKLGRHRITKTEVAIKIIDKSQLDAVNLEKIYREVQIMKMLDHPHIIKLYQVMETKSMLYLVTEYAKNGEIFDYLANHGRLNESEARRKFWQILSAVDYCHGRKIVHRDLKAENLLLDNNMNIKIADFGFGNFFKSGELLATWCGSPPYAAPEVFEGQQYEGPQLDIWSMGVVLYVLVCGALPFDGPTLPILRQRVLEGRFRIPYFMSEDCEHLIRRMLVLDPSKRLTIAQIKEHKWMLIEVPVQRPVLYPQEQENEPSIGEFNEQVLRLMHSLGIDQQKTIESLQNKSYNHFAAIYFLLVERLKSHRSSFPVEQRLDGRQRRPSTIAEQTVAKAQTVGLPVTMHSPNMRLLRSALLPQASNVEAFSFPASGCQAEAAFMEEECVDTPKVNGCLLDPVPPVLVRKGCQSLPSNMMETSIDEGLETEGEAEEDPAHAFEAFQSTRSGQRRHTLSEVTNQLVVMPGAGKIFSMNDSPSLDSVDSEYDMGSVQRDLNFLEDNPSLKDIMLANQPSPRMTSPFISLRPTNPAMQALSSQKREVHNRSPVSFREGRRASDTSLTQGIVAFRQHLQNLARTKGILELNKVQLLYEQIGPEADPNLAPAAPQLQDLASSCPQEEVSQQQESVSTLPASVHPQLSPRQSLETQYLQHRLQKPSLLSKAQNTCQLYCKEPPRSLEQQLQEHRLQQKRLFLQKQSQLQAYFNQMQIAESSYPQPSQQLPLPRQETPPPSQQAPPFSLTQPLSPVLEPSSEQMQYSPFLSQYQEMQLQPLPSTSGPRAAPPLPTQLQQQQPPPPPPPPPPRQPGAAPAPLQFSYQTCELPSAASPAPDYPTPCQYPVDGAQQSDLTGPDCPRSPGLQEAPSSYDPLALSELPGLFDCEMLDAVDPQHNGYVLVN
Procedure, shortened: as §1

[5] = target: T5, scanMAX Kinase assay panel (Homo sapiens, UniProt O43283); details: LZK; 1 uM; read-out: Percent Control (%)
T5 construct: purchased DiscoverX
T5 sequence (O43283 1-966): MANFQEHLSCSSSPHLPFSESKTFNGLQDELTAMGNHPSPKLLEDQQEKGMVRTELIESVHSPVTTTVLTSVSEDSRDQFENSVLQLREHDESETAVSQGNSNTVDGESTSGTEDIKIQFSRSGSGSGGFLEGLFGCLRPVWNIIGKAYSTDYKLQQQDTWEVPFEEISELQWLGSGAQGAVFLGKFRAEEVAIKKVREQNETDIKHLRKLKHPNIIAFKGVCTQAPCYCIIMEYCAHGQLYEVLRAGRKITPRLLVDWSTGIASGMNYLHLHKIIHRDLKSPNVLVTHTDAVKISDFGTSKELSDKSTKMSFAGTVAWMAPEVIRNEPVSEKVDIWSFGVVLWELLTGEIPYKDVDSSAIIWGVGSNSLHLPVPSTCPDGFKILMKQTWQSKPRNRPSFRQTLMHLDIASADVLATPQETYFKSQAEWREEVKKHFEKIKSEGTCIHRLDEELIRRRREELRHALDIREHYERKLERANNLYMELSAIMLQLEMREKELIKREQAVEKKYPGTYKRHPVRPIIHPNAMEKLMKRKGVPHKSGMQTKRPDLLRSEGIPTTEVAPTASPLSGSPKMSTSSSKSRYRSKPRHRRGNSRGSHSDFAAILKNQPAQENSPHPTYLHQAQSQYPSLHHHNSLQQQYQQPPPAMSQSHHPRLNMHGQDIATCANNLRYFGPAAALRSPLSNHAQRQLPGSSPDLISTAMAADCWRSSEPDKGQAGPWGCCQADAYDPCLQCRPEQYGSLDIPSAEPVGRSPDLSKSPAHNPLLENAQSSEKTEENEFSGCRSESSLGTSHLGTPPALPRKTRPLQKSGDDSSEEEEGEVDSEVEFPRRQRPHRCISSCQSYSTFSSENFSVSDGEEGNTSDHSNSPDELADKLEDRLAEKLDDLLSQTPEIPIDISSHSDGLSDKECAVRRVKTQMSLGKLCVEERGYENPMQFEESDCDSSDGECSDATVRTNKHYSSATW
Procedure, shortened: as §1

Row | Structure (SMILES) | remaining binding at 1 µM [1] | remaining binding at 1 µM [2] | remaining binding at 1 µM [3] | remaining binding at 1 µM [4] | remaining binding at 1 µM [5]
1 | Cc1ccc(C(=O)Nc2ccc(CN3CCN(C)CC3)c(C(F)(F)F)c2)cc1C#Cc1cnc2c(Nc3cnn(C)c3)cccn12 [Example 1, 4-methyl-3-((8-((1-methyl-1H-pyrazol-4-yl)amino)imidazo[1,2-a]pyridin-3-yl)ethynyl)-N-(4-((4-methylpiperazin-1-yl)methyl)-3-(trifluoromethyl)phenyl)benzamide] | 0% | 1% | 55% | 44% | 71%
2 | Cc1cn(-c2cc(NC(=O)c3ccc(C)c(C#Cc4cnc5c(Nc6cnn(C)c6)cccn45)c3)cc(C(F)(F)F)c2)cn1 [Example 12, 4-methyl-N-(3-(4-methyl-1H-imidazol-1-yl)-5-(trifluoromethyl)phenyl)-3-((8-((1-methyl-1H-pyrazol-4-yl)amino)imidazo[1,2-a]pyridin-3-yl)ethynyl)benzamide] | 1% | 31% | 91% | 58% | 100%
3 | Cc1ccc(NC(=O)C2(C(=O)Nc3ccc(F)cc3)CC2)cc1C#Cc1cnc2c(Nc3cnn(C(C)C)c3)cccn12 [Example 78] | 46% | 100% | 100% | 53% | 94%
